Results from US20210196731A1, “COMPOSITIONS AND METHODS FOR TREATING OCULAR INFLAMMATION AND OCULAR SCARRING” (priority 2018, published 2021).

Tests used:
Type in all cases: cell-based, human
[1] = system: HTCFs; experiment: Collagen Contraction Assay V (AHGF induced, APHS and gentamicin vs mitomycin C); details: APHS 12 and 24 μg/ml
Description: HTCFs were seeded at a density of 2.5×10^5 cells/mL within an extracellular matrix (ECM) mixture containing 400 ul of rat tail-derived type I collagen (1.8 mg/ml), 80 ul of neutralizing solution (equal parts Waymouth's media (Gibco, CAT. NO: 11220035) and 0.275M NaOH) and 20 ul of HTCF conditioned media (concentrated to 25× to obtain a 1× final concentration within the 500 ul matrix solution). The cell-collagen solution was pipetted gently to ensure homogenous distribution of HTCFs while avoiding the production of air bubbles, then 500 ul were pipetted into each well of a 24-well tray. Collagen constructs were allowed to polymerize at 37 C for 45 minutes before adding low serum culture media containing DMEM, 2% Fetal Bovine Serum (FBS), 1% penicillin/streptomycin (P/S).
Tension was allowed to build up within the tethered matrix at 37 C and 5% CO2 for 72 hours before a sterile spatula was used to detach each collagen construct from the edges of the culture well. Plates were then immediately scanned on a flat bed laser scanner to record baseline area, and then measured periodically for a duration of 4 days. The surface area of each collagen construct was measured using ImageJ (NIH) and standardized against the baseline surface area measurement to express changes in area as a percentage of original surface area. […]

[2] = system: HTCFs; experiment: Collagen Contraction Assay IV (AHGF induced, ASA and gentamicin vs mitomycin C); details: ASA 1500 μg/ml and/or gentamicin 750 μg/ml; comparator mitomycin C 0.2 mg/ml for 4 minutes
Description: Tension was allowed to build up within the tethered matrix at 37 C and 5% CO2 for 72 hours before a sterile spatula was used to detach each collagen construct from the edges of the culture well. Plates were then immediately scanned on a flat bed laser scanner and then periodically for a total of 4 days. The surface area of each collagen construct was measured using ImageJ (NIH) and standardized against the baseline surface area measurement to express changes in area as a percentage of original surface area.
In this modification of the assay, AHGFs are added to all culture media the collagen constructs are exposed to—from casting of the collagen constructs to the conclusion of contraction. The experimental treatment solutions—all also containing AHGFs—were added 30 minutes prior to detaching the collagen constructs from the culture wells and remained until experimental conclusion. […] DMEM w/2% FBS was added for the remainder of the experiment).

[3] = system: HTCFs; experiment: Collagen Contraction Assay II (dose dependence)
Description: Tension was allowed to build up within the tethered matrix at 37 C and 5% CO2 for 72 hours before a sterile spatula was used to detach each collagen construct from the edges of the culture well. Plates were then immediately scanned on a flat bed laser scanner once per 24 hours for a total of 4 days. The surface area of each collagen construct was measured using ImageJ (NIH) and standardized against the baseline surface area measurement to express changes in area as a percentage of original surface area.
The gentamicin concentrations assessed were delivered in a solution contained DMEM with 2% FBS, 1% penicillin/streptomycin and either 100, 250, 500, 750 or 100 μg/ml gentamicin (Sigma-Aldrich, CAT. NO: G1397). The ASA concentrations assessed were delivered in a solution of DMEM with 2% FBS, 1% penicillin/streptomycin and either 500, 1000 or 1500 μg/ml ASA (Sigma-Aldrich, CAT. NO: A5376). […]

[4] = system: MMP9; experiment: Western blot of HTCF protein lysate, MMP9; details: ASA 100, 400, 1600 μg/ml, 48 hrs
Description: (§1) Cells were lysed in lysis buffer (PhosphoSafe Extraction Reagent, Novagen) containing a protease inhibitor cocktail (P2714, Sigma-Aldrich). Crude protein lysate was quantified using a Pierce BCA protein assay kit (ThermoFisher, Mississauga, ON) and 10 ug from each sample was resolved using a Novex WedgeWell 4-20% tris-glycine gel (Invitrogen). Using an iBlot Gel Transfer Device (IB1001, Invitrogen), the separated protein was transferred to a nitrocellulose membrane (1B301001, iBlot Transfer Stack, Invitrogen) which was then blocked with 5% (w/v) bovine serum albumin (Sigma-Aldrich) in Tris buffered saline (TBST) for 1 hour at room temperature. The membranes were incubated overnight at 4° C. with primary antibody diluted in TBST containing 5% BSA (w/vol). Primary antibodies used were as follows: collagen 1 (ab138492, Abcam), αSMA (ab5694, Abcam), MMP9 (ab38898, Abcam), PPARγ (sc-7273, SantaCruz Biotechnology), SMAD2/3 (ab63672, Abcam), pSMAD2/3 (ab63399, Abcam) and GAPDH (sc-47724, Santa Cruz Biotechnology, Inc.). […] Imaging and relative densiometric quantification was accomplished using a ChemiDoc MP System (Bio-Rad Laboratories, Inc.) connected to Image Lab (Version 6, Bio-Rad Laboratories, Inc.).

[5] = system: PPARγ; experiment: Western blot of HTCF protein lysate, PPARγ; details: AHGFs; ASA 100, 400, 1600 μg/ml, 48 hrs
Description: as §1

| Compound | AHGF-induced HTCF-mediated collagen contraction [1] | AHGF induced, HTCF-mediated collagen contraction [2] | HTCF-mediated collagen contraction ([3]; ASA 500 μg/ml, alone or with gentamicin 100-1000 μg/ml (FIG. 8C)) | HTCF-mediated collagen contraction ([3]; ASA alone, 500, 1000, 1500 μg/ml, four days (FIG. 8B)) | AHGF-induced expression of MMP9 [4] | expression of PPARγ [5] |
| --- | --- | --- | --- | --- | --- | --- |
| CCCCC#CCSc1ccccc1OC(C)=O [APHS, o-(acetoxyphenyl)hept-2-ynyl sulfide] | significantly inhibited AHGF-induced HTCF-mediated collagen contraction | – | – | – | – | – |
| CC(=O)Oc1ccccc1C(=O)O [ASA, acetylsalicylic acid] | – | significantly negate the effects of the AHGFs on HTCF-mediated collagen contraction, albeit significantly less than the current ophthalmic clinical gold standard | no significant treatment effects found | dose dependent inhibition of HTCF-mediated collagen contraction | significantly impaired the AHGF-induced expression | significantly induce expression of PPARγ |
